Laboratory results: US6495376B1, “Methods and compositions for regulating protein-protein interactions” (Beth Israel Deaconess Medical Center, priority 1999, dated 2002)
Where two headings read alike, the source gives them in different places. Values belong to the substance of their own block, whether it stands above or below them. Where no end group is shown, it is not given here. [ ]: non-standard residue; d: D form. pT = C[C@@H](OP(=O)(O)O)[C@H](N)C(=O)O; pS = N[C@@H](COP(=O)(O)O)C(=O)O

Legend:
Pin1 = Pin1 (Homo sapiens, UniProt Q13526); test: ELISA peptide binding to Pin1; conditions: for Binding (OD@405 nm), tau peptides: Pin1; for Binding (OD@405 nm), Amyloid Precursor Protein Peptide: protein not printed in these lines, text: Pin1 WW-domain
Sequence of Pin1 (Q13526 whole entry): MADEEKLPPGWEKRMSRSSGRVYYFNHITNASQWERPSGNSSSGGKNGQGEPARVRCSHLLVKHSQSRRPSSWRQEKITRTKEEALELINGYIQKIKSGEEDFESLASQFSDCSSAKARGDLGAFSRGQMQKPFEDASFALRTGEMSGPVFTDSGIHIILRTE

WFYpSPFLE (Pintide) = test: Fluorescence anisotropy (polarization) binding to fluorescein-labeled phosphorylated Pintide analogue
From the text: To determine the affinity of Pin1, and its WW or PPIase domain for phosphopeptides, peptides were labeled with fluorescein and their interactions with Pin1 measured using quantitative fluorescence anisotrophy. To prevent nonspecific labeling, a Pintide analogue (WFYpSPFLE) SEQ ID NO: 9 was used, which binds Pin1 with a high affinity based on the peptide library screen as described by (Lu, K. P. et al., U.S. Ser. No. 60/058,164 (1997), the teachings of which are incorporated herein in their entirety.
(§1) Pintide and its nonphosphorylated counterpart were synthesized and incubated with GST-Pin1 or the GST-WW-domain of Pin1 in a binding buffer, using established procedures (Shen, M. et al., Genes & Dev 12:706 (1998)). After a 1 hr incubation, mitotic HeLa cell extracts were added and subjected to GST pull down experiments, followed by immunoblotting analysis using the MPM-2 antibody. To obtain semi-quantitative data, films of immunoblots were scanned at the region of 55 kDa, the major Pin1-binding protein, and data analyzed using ImageQuan (ScanJet II CX). The peptide binding constants were measured using a fluorescence polarization assay (Jiskoot, W. et al., Anal Biochem 196:421 (1991)). Peptides were fluorescein labeled at the N-terminus using the Fluorescein Amine Labeling Kit (Pan Vera Corp.) and purified by TLC according to the manufacturer's […]. To prevent nonspecific labeling, a Pintide analogue (WFYpSPFLE) SEQ ID NO: 8 and the nonphosphorylated control were used. Various concentrations of Pin1 and its mutant proteins were incubated with 0.1 μM of the labeled peptides in a binding buffer containing 50 mM HEPES, pH 7.4, 100 mM NaCl, 2% glycerol. Fluorescence polarization values were obtained using a Pan Vera Beacon 2000 system, as described by the manufacturer.

WFYSPFLE = test: Fluorescence anisotropy binding to fluorescein-labeled nonphosphorylated control peptide; conditions: nonphosphorylated peptide
phosphorylated tau = test: GST-Pin1 pulldown of tau; assay type: binding; conditions: AD brain extracts, PHFs or age-matched normal brain extracts
Sequence of phosphorylated tau (P10636 45-216 isoform P10636-2 limits assumed): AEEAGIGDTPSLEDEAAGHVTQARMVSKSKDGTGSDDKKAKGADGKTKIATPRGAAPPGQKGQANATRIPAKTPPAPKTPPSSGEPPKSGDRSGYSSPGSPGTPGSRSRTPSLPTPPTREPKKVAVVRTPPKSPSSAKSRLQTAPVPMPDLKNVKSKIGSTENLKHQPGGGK
From the text: Pin1 binds and regulates the function of a defined subset of mitotic phosphoproteins by interacting with conserved phosphorylated Ser/Thr-Pro motifs that are also recognized by MPM-2, a mitosis-specific, phosphorylation-dependent monoclonal antibody (mAb) (Yaffe, M. B. et al., Science 278:1957-1960 (1997); Shen, M. et al., Genes Dev. 12:706-720 (1 998)). Tau is an MPM-2 antigen phosphorylated on multiple Ser/Thr-Pro motifs during mitosis (Illenberger, S. et al., Mol Biol Cell 9:1495-1512 (1998)). Experiments were undertaken to determine whether Pin1 binds tau. Tau isoform was either synthesized by in vitro transcription and translation in the presence of ^35S-Met or produced in bacteria as an N-terminal His-tagged protein, followed by purification using NTA-Ni columns (Yaffe, M. B. et al., Science 278:1957-1960 (1997); Shen, M. et al., Genes Dev. 12:706-720 (1998)). To generate interphase- and mitosis-specific phosphorylated form of tau, tau was incubated with Xenopus interphase and mitotic extracts, respectively (Shen, M. et al., Genes Dev. 12:706-720 (1998)). To prepare Cdc2 phosphorylated tau, purified recombinant tau was incubated with purified cyclin B/Cdc2 (UBI) for 6 to 12 hr at room temperature in a buffer containing 500 μM cold ATP, plus trace [^32P]-ATP in some experiments, (Vincent, I. et al., J Neurosci 17:3588-3598 (1997)).
Pin1 interactions with tau in AD brains were examined using a GST-Pin1 pulldown assay (Shen, M. et al., Genes Dev. 12:706-720 (1998)). Glutathione beads containing GST or GST-Pin1 were incubated with normal or AD brain extracts, or PHFs purified (Vincent, I. J. and Davies, P. Proc Natl Acad Sci USA 89:2878-2882 (1992)), and proteins associated with the beads were subjected to immunoblotting analysis using CP27, which recognizes all forms of tau. Recombinant and mutant Pin1 proteins were produced as N-terminal GST or His-tagged fusion proteins (Shen, M. et al., Genes Dev. 12:706-720 (1998)). PHFs were purified by immunoaffinity chromatography (Vincent, I. J. and Davies, P. Proc Natl Acad Sci USA 89:2878-2882 (1992)).
To determine whether Pin1 interacts with pT231-tau, GST-Pin1 beads were used to isolate tau from AD brain extracts or PHFs and T231 phosphorylation detected using CP9. Tau isolated by Pin1 beads was strongly immunoreactive with CP9. […] Thus, Pin1 binds pT231-tau through its WW-domain.

[1] = system: MPM-2 antigens (mitotic phosphoproteins) of mitotic HeLa cell extracts; test: GST pulldown from mitotic HeLa cell extracts, MPM-2 immunoblotting (phosphoprotein-binding activity); conditions: for Phosphoprotein binding activity: GST-fusion proteins with mitotic extracts, MPM2 antibody; for binding to mitotic phosphoproteins / MPM-2 antigens (in words): mitotic HeLa cell extracts
Procedure: GST-fusion proteins containing the WW-domain, PPIase-domain or the entire Pin 1 protein were prepared and incubated with interphase (G1/S arrested; Control) or dividing (M phase) HeLa cell extracts using well-known procedures (Lu, K. P., et al., Nature 380:544 (1996); (Shen, M., et al., Genes & Devl. 12:706 (1998)). Briefly, HeLa cells were arrested at the G1/S boundary or mitosis by incubation with thymidine and aphidicolin or nocodazole for 16 h, respectively. The cells were lysed and supernatants incubated with 10 μl of agarose beads containing GST-Pin1; GST-WW-domain of Pin1; GST-PPIase domain of Pin1; or control GST for 2 h at 4° C. The phosphorylated precipitated proteins were washed 5 times in buffer containing 1% Triton X-100 before subjecting to immunoblotting analysis using MPM-2 antibody, as described previously (Yaffe, M. B. et al., Science 278:1957 (1997); Schukowski, et al., Biochemistry 37:5566 (1998); Shen, M. et al., Genes & Dev 12:706 (1998)). MPM-2 recognizes a subset of mitotic phosphoproteins including Pin1-binding proteins such as cdc25.
as §1
To examine the effect of Pin1 phosphorylation on Pin1 binding to ligands, Pin1 and Pin1 mutant proteins were incubated with the catalytic subunit of PKA and PKC (a mixture of α, β and γ, UBI) in a kinase reaction buffer containing 500 μM cold ATP at 30° C. for 15 min (Lu, K. P. et al., Anal. Biochem. 196:421 (1991)). The reactions were stopped by adding SDS sample buffer and reaction products separated on SDS-gels, followed by autoradiography. Pin1 proteins were isolated and used to bind MPM-2 antigens from mitotic extracts from HeLa cells, as previously described (Shen, M., et al., Genes & Dev 12:706 (1998)). Experiments were also performed with PKA and PKC, casein kinase, cyclin B/Cdc2 and SRPK1 kinases.

peptide substrate = test: PPIase activity assay with peptide substrate; assay type: biochemical; conditions: relative to wild-type protein defined as 100%
Pin1 and its WW-domain = test: Peptide competition of Pin1 / WW-domain binding to MPM-2 antigens of mitotic extracts; parameters: species or system human; conditions: for competition for phosphoprotein binding (in words): 0, 25, 50, 125, 250, 500 μM peptide
Sequence of Pin1 and its WW-domain (Q13526 1-54 limits assumed): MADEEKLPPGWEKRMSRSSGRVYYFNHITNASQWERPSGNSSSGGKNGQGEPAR
Procedure: To examine the ability of a phosphopeptide to compete with phosphoproteins for binding to the WW-domain, the Pin1 binding phosphopeptide Pintide (WFYpSPRLKK, SEQ ID NO: 13) (Lu, K. P. et al., U.S. Ser. No. 60/058,164 (1997)) was used in competition assays. A nonphosphorylated counterpart of Pintide ([…], SEQ ID NO: 14) (C-Pintide) was used as a control.
as §1

[2] = high affinity binding site, read-out: WFYpSPFLE Kd(μM) High affinity
[3] = low affinity binding site, read-out: WFYpSPFLE Kd(μM) Low affinity
[4] = fluorescein labeled Pintide, high affinity pSer-binding site in the WW-domain, read-out: Kd for Pintide
[5] = competition with MPM2 antigens of mitotic extracts

Substance: GST-Pin1: GST-fusion protein containing the entire Pin1 protein
Kd (WFYpSPFLE (Pintide); [2]): 1.2 µM
Kd (WFYpSPFLE (Pintide); [3]): 13 µM
WFYSPFLE Kd (WFYSPFLE): Not binding
binding to tau of brain extracts (phosphorylated tau): bound tau present in AD brain extracts or PHFs

Substance: GYSSPGSPGTPGSR (also: phosphoserine, place not given here) [pS-202]
Binding (OD@405 nm), tau peptides (Pin1): 0.08 OD@405 nm

Substance: KEVDAAVTPEERHLS [T-668]
Binding (OD@405 nm), Amyloid Precursor Protein Peptide (Pin1): 0.00 OD@405 nm

Substance: KVAVVRTPPKSPS [T-231]
Binding (OD@405 nm), tau peptides (Pin1): 0.00 OD@405 nm

Substance: Pin1^R14A: Pin1 with substitution of Arg-14 with Ala
Kd (WFYpSPFLE (Pintide); [4]): 2 µM
Kd (WFYpSPFLE (Pintide); [2]): 2 µM
Kd (WFYpSPFLE (Pintide); [3]): 13.5 µM
Phosphoprotein binding activity [1]: + (binding was detected)
binding to mitotic phosphoproteins / MPM-2 antigens (in words) [1]: did not appear to cause a significant change
PPlase Activity (%) (peptide substrate): 92%

Substance: Pin1^S16A: Pin1 with Ser-16 substituted with Ala
Kd (WFYpSPFLE (Pintide); [4]): 1.2 µM
Kd (WFYpSPFLE (Pintide); [2]): 1.2 µM
Kd (WFYpSPFLE (Pintide); [3]): 10.5 µM
Phosphoprotein binding activity [1]: + (binding was detected)
binding to mitotic phosphoproteins / MPM-2 antigens (in words) [1]: interacted with all Pin1 ligands
effect of phosphorylation by PKA on interaction with MPM2 antigens ([1]; protein phosphorylated by PKA before binding): not affected by PKA phosphorylation
PPlase Activity (%) (peptide substrate): 96%

Substance: Pin1^S18E: Pin1 with Ser-18 mutated to Glu
Kd (WFYpSPFLE (Pintide); [2]): 1 µM
Kd (WFYpSPFLE (Pintide); [3]): 12 µM
Phosphoprotein binding activity [1]: + (binding was detected)
binding to mitotic phosphoproteins / MPM-2 antigens (in words) [1]: did not affect the ability of Pin1 to bind phosphoproteins
PPlase Activity (%) (peptide substrate): 98%

Substance: Pin1^Y23F: Pin1 mutant, Tyr-23 replaced by Phe
Kd (WFYpSPFLE (Pintide); [4]): 5 µM
PPlase Activity (%) (peptide substrate): 94%

Substance: SRSRTPSLPTPPT (also: phosphoserine, place not given here) [pS-214]
Binding (OD@405 nm), tau peptides (Pin1): 0.00 OD@405 nm

Substance: VRTPPKSPSSAKSR (also: phosphoserine, place not given here) [pS-235]
Binding (OD@405 nm), tau peptides (Pin1): 0.11 OD@405 nm

Substance: WFYSPRLKK (not fully specified) [C-Pintide, nonphosphorylated counterpart of Pintide, control, reference compound]
competition for phosphoprotein binding (in words) (Pin1 and its WW-domain): not with the nonphosphorylated peptide

Further lines, with some results ahead:

Binding (OD@405 nm), tau peptides (Pin1): 0.00 OD@405 nm
Substance: DAGLKESPLQTPTE (DAGLKE[pS]PLQTPTE) [pS-46]

Binding (OD@405 nm), tau peptides (Pin1): 0.00 OD@405 nm
Substance: GSLDNITHVPGGG (GSLDNI[pT]HVPGGG) [pT-361]

Binding (OD@405 nm), Amyloid Precursor Protein Peptide (Pin1): 1.81 OD@405 nm
Substance: KEVDAAVTPEERHLS [pT-668] (KEVDAAV[pT]PEERHLS)

Binding (OD@405 nm), tau peptides (Pin1): 0.00 OD@405 nm
Substance: NVSSTGSIDMVDS (also: phosphoserine, place not given here) [pS-416]

Binding (OD@405 nm), tau peptides (Pin1): 0.02 OD@405 nm
Substance: PRHLSNVSSTGSIDMV [pS-412] (PRHLSNV[pS]STGSIDMV)

Binding (OD@405 nm), tau peptides (Pin1): 0.00 OD@405 nm
Substance: PRHLSNVSSTGSIDMV [pS-413] (PRHLSNVS[pS]TGSIDMV)

Binding (OD@405 nm), tau peptides (Pin1): 0.00 OD@405 nm
Substance: SIDMVDSPQLATL (also: phosphorylated Ser, place not given here) [pS-422]

Binding (OD@405 nm), tau peptides (Pin1): 0.00 OD@405 nm
Substance: TRIPAKTPPAPKT (also: phosphorylated Thr, place not given here) [pT-175]

Binding (OD@405 nm), tau peptides (Pin1): 0.00 OD@405 nm
Substance: TSPRHLSNVSSTG (also: phosphoserine, place not given here) [pS-409]

Binding (OD@405 nm), tau peptides (Pin1): 0.00 OD@405 nm
Substance: VQSKIGSLDNITH (also: phosphoserine, place not given here) [pS-356]

peptide concentration with complete competition (Pin1 and its WW-domain; [5]): 250 to 500 µM
peptide concentration with significant competition (Pin1 and its WW-domain; [5]): 50 µM
Substance: WFYpSPRLKK (WFY[pS]PRLKK) [Pintide]
competition for phosphoprotein binding (in words) (Pin1 and its WW-domain): significantly reduced in a concentration dependent manner
